The values that follow come from ChEMBL document CHEMBL3044623, “Feeding cessation effects of chlorantraniliprole, a new anthranilic diamide insecticide, in comparison with several insecticides in distinct chemical classes and mode-of-action groups” (2009).

The subject of experiment [1] is Trichoplusia ni. Kind of experiment: Antifeedant activity against third-instar larval stage of Trichoplusia ni (cabbage looper) infested compound-treated leaf assessed as reduction in feeding damage at 467 mg a.i/L after 48 hr by leaf disk assay relative to untreated control. Also noted: scale not given: the % may be the effect or the level left. Type of experiment: functional.

Experiment [2] concerns Plutella xylostella. As to the kind of experiment: Antifeedant activity against third-instar larval stage of Plutella xylostella (diamondback moth) infested compound-treated leaf assessed as reduction in feeding damage at 467 mg a.i/L after 48 hr by leaf disk assay relative to untreated control. Set-up: scale not given: the % may be the effect or the level left. Type of experiment: functional.

In experiment [3] the test system is Plutella xylostella. As to the kind of experiment: Antifeedant activity against third-instar larval stage of Plutella xylostella (diamondback moth) infested compound-treated leaf assessed as time required to stop feeding at 467 mg a.i/L after 48 hr by leaf disk assay (reference value: > 2880 min). Type of experiment: functional.
The subject of experiment [4] is Helicoverpa zea. Kind of experiment: Antifeedant activity against third-instar larval stage of Helicoverpa zea (corn earworm) infested compound-treated leaf assessed as reduction in feeding damage at 467 mg a.i/L after 48 hr by leaf disk assay relative to untreated control. Type of experiment: functional. Also noted: scale not given: the % may be the effect or the level left.

In experiment [5] the test system is Spodoptera exigua. Kind of experiment: Antifeedant activity against third-instar larval stage of Spodoptera exigua infested compound-treated leaf assessed as time required to stop feeding at 467 mg a.i/L after 48 hr by leaf disk assay (reference value: > 2880 min). It counts as functional.
Experiment [6] concerns Spodoptera exigua. As to the kind of experiment: Antifeedant activity against third-instar larval stage of Spodoptera exigua infested compound-treated leaf assessed as reduction in feeding damage at 467 mg a.i/L after 48 hr by leaf disk assay relative to untreated control. It counts as functional. Set-up: scale not given: the % may be the effect or the level left.
Experiment [7] has as its system Trichoplusia ni. Kind of experiment: Antifeedant activity against third-instar larval stage of Trichoplusia ni (cabbage looper) infested compound-treated leaf assessed as time required to stop feeding at 467 mg a.i/L after 48 hr by leaf disk assay (reference value: > 2880 min). It counts as functional.
In experiment [8] the test system is Helicoverpa zea. As to the kind of experiment: Antifeedant activity against third-instar larval stage of Helicoverpa zea (corn earworm) infested compound-treated leaf assessed as time required to stop feeding at 467 mg a.i/L after 48 hr by leaf disk assay (reference value: > 2880 min). Type of experiment: functional.
Experiment [9] has as its system Plutella xylostella. As to the kind of experiment: Antifeedant activity against third-instar larval stage of Plutella xylostella (diamondback moth) infested compound-treated leaf assessed as reduction in feeding damage at 124 mg a.i/L after 48 hr by leaf disk assay relative to untreated control. Also noted: scale not given: the % may be the effect or the level left. It counts as functional.

Experiment [10] has as its system Plutella xylostella. Kind of experiment: Antifeedant activity against third-instar larval stage of Plutella xylostella (diamondback moth) infested compound-treated leaf assessed as time required to stop feeding at 124 mg a.i/L after 48 hr by leaf disk assay (reference value: > 2880 min). It counts as functional.
The test system of experiment [11] is Trichoplusia ni. As to the kind of experiment: Antifeedant activity against third-instar larval stage of Trichoplusia ni (cabbage looper) infested compound-treated leaf assessed as time required to stop feeding at 124 mg a.i/L after 48 hr by leaf disk assay (reference value: > 2880 min). It counts as functional.
Experiment [12] concerns Spodoptera exigua. As to the kind of experiment: Antifeedant activity against third-instar larval stage of Spodoptera exigua infested compound-treated leaf assessed as time required to stop feeding at 124 mg a.i/L after 48 hr by leaf disk assay (reference value: > 2880 min). It counts as functional.
Experiment [13] concerns Spodoptera exigua. Kind of experiment: Antifeedant activity against third-instar larval stage of Spodoptera exigua infested compound-treated leaf assessed as reduction in feeding damage at 124 mg a.i/L after 48 hr by leaf disk assay relative to untreated control. It counts as functional. Also noted: scale not given: the % may be the effect or the level left.
The subject of experiment [14] is Helicoverpa zea. Kind of experiment: Antifeedant activity against third-instar larval stage of Helicoverpa zea (corn earworm) infested compound-treated leaf assessed as reduction in feeding damage at 124 mg a.i/L after 48 hr by leaf disk assay relative to untreated control. It counts as functional. Also noted: scale not given: the % may be the effect or the level left.

In experiment [15] the test system is Trichoplusia ni. Kind of experiment: Antifeedant activity against third-instar larval stage of Trichoplusia ni (cabbage looper) infested compound-treated leaf assessed as reduction in feeding damage at 124 mg a.i/L after 48 hr by leaf disk assay relative to untreated control. It counts as functional. Also noted: scale not given: the % may be the effect or the level left.

In experiment [16] the test system is Helicoverpa zea. Kind of experiment: Antifeedant activity against third-instar larval stage of Helicoverpa zea (corn earworm) infested compound-treated leaf assessed as time required to stop feeding at 124 mg a.i/L after 48 hr by leaf disk assay (reference value: > 2880 min). It counts as functional.
Experiment [17] concerns Plutella xylostella. As to the kind of experiment: Antifeedant activity against third-instar larval stage of Plutella xylostella (diamondback moth) infested compound-treated leaf assessed as reduction in feeding damage at 936 mg a.i/L after 48 hr by leaf disk assay relative to untreated control. It counts as functional, organism-based. Set-up: scale not given: the % may be the effect or the level left.

The subject of experiment [18] is Plutella xylostella. As to the kind of experiment: Antifeedant activity against third-instar larval stage of Plutella xylostella (diamondback moth) infested compound-treated leaf assessed as time required to stop feeding at 936 mg a.i/L after 48 hr by leaf disk assay (reference value: > 2880 min). It counts as functional, organism-based.
For experiment [19], the system named is Trichoplusia ni. Kind of experiment: Antifeedant activity against third-instar larval stage of Trichoplusia ni (cabbage looper) infested compound-treated leaf assessed as reduction in feeding damage at 936 mg a.i/L after 48 hr by leaf disk assay relative to untreated control. It counts as functional, organism-based. Also noted: scale not given: the % may be the effect or the level left.

Experiment [20] concerns Helicoverpa zea. Kind of experiment: Antifeedant activity against third-instar larval stage of Helicoverpa zea (corn earworm) infested compound-treated leaf assessed as reduction in feeding damage at 936 mg a.i/L after 48 hr by leaf disk assay relative to untreated control. It counts as functional, organism-based. Also noted: scale not given: the % may be the effect or the level left.

Experiment [21] deals with Spodoptera exigua. Kind of experiment: Antifeedant activity against third-instar larval stage of Spodoptera exigua infested compound-treated leaf assessed as time required to stop feeding at 936 mg a.i/L after 48 hr by leaf disk assay (reference value: > 2880 min). It counts as functional, organism-based.
Experiment [22] deals with Spodoptera exigua. As to the kind of experiment: Antifeedant activity against third-instar larval stage of Spodoptera exigua infested compound-treated leaf assessed as reduction in feeding damage at 936 mg a.i/L after 48 hr by leaf disk assay relative to untreated control. Type of experiment: functional, organism-based. Also noted: scale not given: the % may be the effect or the level left.

For experiment [23], the system named is Trichoplusia ni. Kind of experiment: Antifeedant activity against third-instar larval stage of Trichoplusia ni (cabbage looper) infested compound-treated leaf assessed as time required to stop feeding at 936 mg a.i/L after 48 hr by leaf disk assay (reference value: > 2880 min). It counts as functional, organism-based.
Experiment [24] has as its system Helicoverpa zea. Kind of experiment: Antifeedant activity against third-instar larval stage of Helicoverpa zea (corn earworm) infested compound-treated leaf assessed as time required to stop feeding at 936 mg a.i/L after 48 hr by leaf disk assay (reference value: > 2880 min). It counts as functional, organism-based.

Consider `COc1cccc(C(=O)NN(C(=O)c2cc(C)cc(C)c2)C(C)(C)C)c1C` [METHOXYFENOZIDE], for which the Activity is 81.6% in the experiment on Trichoplusia ni [1], 96% with Plutella xylostella [2], 93.3% in the experiment with Helicoverpa zea [4] and 72.9% with Spodoptera exigua [6]. Besides, the Time with Plutella xylostella [3] came to 514.5 min; with Spodoptera exigua [5], 281.1 min; in the experiment with Trichoplusia ni [7] it was 408.8 min; with Helicoverpa zea [8] it was 471.8 min.

With `CC1(C)[C@H](/C=C(\Cl)C(F)(F)F)[C@@H]1C(=O)O[C@@H](C#N)c1cccc(Oc2ccccc2)c1` [REL-LAMBDA CYHALOTHRIN], the Activity in the experiment with Plutella xylostella [9] turned out to be 99.6%; with Spodoptera exigua [13], 99.5%; in the experiment with Helicoverpa zea [14], 99.9%; with Trichoplusia ni [15], 99.9%. For the same compound, the Time in the experiment on Plutella xylostella [10] was determined as 8.1 min; in the experiment with Trichoplusia ni [11], 9.3 min; with Spodoptera exigua [12] it was 5.4 min; in the experiment with Helicoverpa zea [16], 7.3 min.

Regarding METAFLUMIZONE, the Activity in the experiment on Plutella xylostella [17] is 89.6%; with Trichoplusia ni [19] it was 87.6%; with Helicoverpa zea [20] it was 57.9%; with Spodoptera exigua [22], 47.4%. For the same compound, the TIME in the experiment on Plutella xylostella [18] was 6.04 h; with Spodoptera exigua [21], 7.96 h; in the experiment on Trichoplusia ni [23], 4.23 h; in the experiment with Helicoverpa zea [24], 10.3 h.
